Results on seven molecules are retold here after ChEMBL document CHEMBL1201862, “PubChem BioAssay data set” (2004).

SMILES strings stand for the structures.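 All cell lines were grown in 96-well plates and treated with compound for 48 hours. GI50 marks 50% less growth.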 Calls of active or inactive are those of the source. No stated cut-off is given here; in the data, active = GI50 up to about 1.1 µM and inactive = higher. Where only a bound is given, the exact number is not on record here.

Assay in all cases: NCI-60 cell line screen, 48 h
Test [1] relates to KM12.
Test [2] concerns SF-295.
Test [3] deals with Malme-3M.
In test [4] the test system is SK-MEL-5.
In test [5] the test system is SK-MEL-28.
For test [6], the system named is SK-OV-3.
The subject of test [7] is SN12C.
The test system of test [8] is HCT-15.
The subject of test [9] is A549.
In test [10] the test system is HOP-62.
In test [11] the test system is CAKI-1.
Test [12] deals with SNB-75.
Test [13] has as its system MDA-MB-435.
The test system of test [14] is U-251.
Test [15] deals with HOP-18.
Test [16] concerns HCC 2998.
Test [17] has as its system SNB-19.
In test [18] the test system is MDA-N.
The test system of test [19] is NCI-H226.
The subject of test [20] is EKVX.

As to `C/C(=N\N=C(/[SeH])N1CC2CCC(CC2)C1)c1ccccn1`, the GI50 in test [1] was 0.094 µM (active); in test [2], 0.0673 µM (active); in test [3], 0.0506 µM (active); in [4] it was 0.051 µM (active); in [5], 0.0955 µM (active); in test [6], 0.356 µM (active). The GI50 in [7] is 0.228 µM (active); in [8], 0.0147 µM; in test [9] it was 0.0614 µM (active); in test [10] it was 0.341 µM (active); in test [11] it was 0.293 µM (active); in test [12] it was 0.0871 µM (active). In addition, the GI50 in test [13] is 0.119 µM (active); in [14], 0.091 µM (active); in [15], 0.294 µM (active); in [16], 0.243 µM (active); in [17] it was 0.2 µM (active); in [18], 0.226 µM (active). Besides, the GI50 was 0.43 µM (active) in test [19] and 0.0914 µM (active) in test [20].
On to `Cc1cc(O)nc(NN2C(Cl)C(=O)C2c2ccccc2O)n1` (centres undefined), for which the GI50 in test [1] was 4.32 µM (inactive); in test [2], 2.76 µM (inactive); in [4] it was 2.66 µM (inactive); in [5] it was 4.94 µM (inactive); in test [6], 1.44 µM (inactive); in test [7], 2.7 µM (inactive). Also, the GI50 in test [8] was 0.65 µM; in [9] it was 4.26 µM (inactive); in test [10] it was 1.76 µM (inactive); in [11], 1.64 µM (inactive); in test [12], 2.54 µM (inactive); in test [13] it was 5.68 µM (inactive). In addition, the GI50 in test [14] was 2.76 µM (inactive); in test [15], 1.6 µM (inactive); in test [16], 2.67 µM (inactive); in test [17], 5.85 µM (inactive); in test [18] it was 4.36 µM (inactive); in [19], 2.39 µM (inactive). Further, the GI50 in [20] was 3.27 µM (inactive).
As to `C=CCO/N=C(\OC(=O)c1ccc([N+](=O)[O-])cc1)c1ccccc1`, the GI50 in [1], in [2], in test [3], in test [4], in test [5] and in test [6] was > 100 µM (inactive) throughout. Further, the GI50 in [7] is > 100 µM (inactive); in test [8], greater than 100 µM; in [9], > 100 µM (inactive); in test [10], > 100 µM (inactive); in test [11], > 100 µM (inactive); in test [12] it was > 100 µM (inactive). In addition, the GI50 in test [14], in test [15], in test [16], in [17], in test [19] and in [20] was > 100 µM (inactive) throughout.
As to `NC(=O)c1ccc(Cl)c([N+](=O)[O-])c1`, the GI50 in test [1], in [2], in [3], in test [4], in test [5] and in test [6] was > 100 µM (inactive) throughout. In addition, the GI50 in [7] was > 100 µM (inactive); in test [8], greater than 100 µM; in [9], > 100 µM (inactive); in test [10], > 100 µM (inactive); in [11], > 100 µM (inactive); in test [12], > 100 µM (inactive). Further, the GI50 in test [14], in [15], in [16], in [17], in [19] and in test [20] was > 100 µM (inactive) each time.
Turning to `CCOc1ccccc1NC(=O)C(=O)CC(=O)c1c(C)[n+]([O-])c2ccccc2[n+]1[O-]`, the GI50 was 83.9 µM (inactive) in test [1]; > 100 µM (inactive) in test [2]; > 100 µM (inactive) in test [3]; 43.9 µM (inactive) in test [4]; > 100 µM (inactive) in test [5]; > 100 µM (inactive) in test [6]. For the same molecule, the GI50 in test [7] is > 100 µM (inactive); in [8] it was 67.1 µM; in test [9], > 100 µM (inactive); in [10], > 100 µM (inactive); in test [11], > 100 µM (inactive); in [12], > 100 µM (inactive). The GI50 in [14] is > 100 µM (inactive); in test [15], 46.5 µM (inactive); in test [16] it was > 100 µM (inactive); in test [17], 69.2 µM (inactive); in [19] it was > 100 µM (inactive); in test [20] it was > 100 µM (inactive).
With `NC(=O)c1c2c(cc3c(=O)c4ccccc4[nH]c13)CCCC2`, the GI50 in [1] was > 100 µM (inactive); in test [2], > 100 µM (inactive); in [3], > 73.6 µM (inactive); in test [4], > 100 µM (inactive); in test [5], > 100 µM (inactive); in test [6], > 100 µM (inactive). Also, the GI50 in test [7] is > 100 µM (inactive); in [8] it was greater than 100 µM; in test [9] it was > 100 µM (inactive); in test [10] it was > 100 µM (inactive); in [11], > 100 µM (inactive); in test [12], 43.1 µM (inactive). The GI50 is > 100 µM (inactive) in test [14]; > 100 µM (inactive) in test [15]; > 100 µM (inactive) in [16]; > 71.4 µM (inactive) in test [17]; > 100 µM (inactive) in test [19]; > 100 µM (inactive) in test [20].
For the molecule `CC12CCC[C@@](C)(C(=O)OC3OC(CO)C(O)C(O)C3O)[C@H]1CCC13CC4CC(OC4(CO)[C@H]1O)[C@@H]23` (some centres undefined), the GI50 in [1], in test [2], in test [3], in test [4], in test [5] and in [6] was > 100 µM (inactive) throughout. For the same molecule, the GI50 in test [7] is > 100 µM (inactive); in test [8], 53.7 µM; in test [9], > 100 µM (inactive); in [10] it was > 100 µM (inactive); in test [11], > 100 µM (inactive); in test [12], > 100 µM (inactive). The GI50 in [14], in test [15], in test [16], in test [17], in [19] and in test [20] was > 100 µM (inactive) in each case.
